Source: publication PMC6851324, “Design and development of stapled transmembrane peptides that disrupt the activity of G-protein–coupled receptor oligomers” (The Journal of Biological Chemistry, 2019)
Where a SMILES comes first, the peptide text is derived from it. Bridges are numbered along the chain shown (N, C = ends). Where no end group is shown, it is not given here. [ ]: non-standard residue; d: D form. S5 = C=CCCC[C@](C)(N)C(=O)O; Nle = CCCC[C@H](N)C(=O)O

Target: T1, 5-HT2AR–CB1R heteromers (Homo sapiens, UniProt P28223)
T1 construct: expressed in transfected cells; host or cells: HEK293 (ATCC CRL-1573), transient reverse transfection
Experiment: NanoBiT BiLC peptide screening assay (LgBiT–CB1R + SmBiT–5-HT2AR)
Type: cell-based
Conditions: HEK293 cells transiently expressing LgBiT–CB1R and SmBiT–5-HT2AR, preincubated 1 h with 4 μM peptide, luminescence normalized to vehicle, n ≥ 5
Protocol: Figure 5. Identification of a small-stapled TM peptide disrupting 5-HT2AR–CB1R heteromers. A, schematic representation of the NanoBiT assay using N-terminally labeled constructs. In B, HEK293 cells transiently expressing the LgBT–CB1R and SmBiT–5-HT2AR complementary pairs were preincubated for 1 h at 37 °C with the indicated peptides (4 μM) or vehicle prior to luminescence recording. Data are mean RLU ± S.E. (error bars) (n ≥ 5) percentage of luminescence normalized to vehicle-treated cells. Statistical significance was evaluated by one-way ANOVA followed by Bonferroni post hoc tests, indicating significant differences over vehicle-treated cells (***, p ≤ 0.001; ****, p ≤ 0.0001) and for peptide 10 over its related peptides (####, p ≤ 0.0001). Peptide 10 potency (C) was evaluated as in A over increasing peptide concentrations (bottom) (n = 3). Alternatively, to assess the kinetics of the peptide 10–driven heteromer disruption (D), prior to the administration of the peptide, the cells were preincubated with substrate, and the luminescence was recorded over the following 30 min. Data are mean RLU ± S.E. (n ≥ 3) percentage of luminescence normalized to vehicle-treated cells.
To assess GPCR protein–protein interactions with the NanoBiT technology, HEK293 cells (50,000 cells/well) were seeded in poly-D-lysine–coated white clear bottom 96-well plates and reverse-transfected (see above) with the plasmids encoding the complementary NanoBiT hemiprotein fragments. For orientation screenings, cells were transfected with two different concentrations (50 and 100 ng/well) of each receptor alone or in combination with the investigated partner (see figure legends) in the presence of empty vector (pcDNA3.1(+)) to normalize the total amount of DNA/well. For studies in the presence of increasing nontagged receptor competitors, 100 ng of each receptor pair (CB1R LgBiT + CB1R SmBiT, 5-HT2AR LgBiT + 5-HT2AR SmBiT, and 5-HT2AR LgBiT + CB1R SmBiT) were co-transfected with increasing concentrations of the different nontagged constructs (from 0 to 300 ng/well), and the total amounts of DNA/well were normalized with empty vector (pcDNA3.1(+)). For the screening of stapled peptides, 50 ng/well of both LgBiT CB1R and SmBiT 5-HT2AR were reverse-transfected as detailed previously. 24 h post- transfection, the cell culture medium was removed, and the cells were starved in FBS-free DMEM for 4 h at 37 °C in a 5% CO2 humidified atmosphere. The cell culture medium was replaced by 100 μl of NanoBiT assay buffer (same as for cAMP measurements), and the plates were pre-equilibrated for 1 h at RT in the dark. When peptide pretreatment was required, peptides were added over this pre-equilibration step, except when studying inhibition kinetics, when the peptides were administered immediately after the baseline luminescence recording. 25 μl/well of a 5× solution of the Nano-Glo® live cell reagent containing the cell-permeable furimazine substrate dissolved in Nano-Glo® LCS dilution buffer were added, and the luminescence was immediately monitored in CLARIOstar® Multimode Plate Reader (BMG Labtech) with no lens (1-s integration time/well for 1 h every minute).
Dose–response curves were fitted using a four-parameter logistic nonlinear regression mode. Peptide stability data were fitted using a nonlinear regression mode for dissociation kinetics. All statistical tests, curve fitting, and graphing were performed using GraphPad Prism 8 (GraphPad Software, La Jolla, CA).

T1 sequence (P28223 2-471, one chain of several): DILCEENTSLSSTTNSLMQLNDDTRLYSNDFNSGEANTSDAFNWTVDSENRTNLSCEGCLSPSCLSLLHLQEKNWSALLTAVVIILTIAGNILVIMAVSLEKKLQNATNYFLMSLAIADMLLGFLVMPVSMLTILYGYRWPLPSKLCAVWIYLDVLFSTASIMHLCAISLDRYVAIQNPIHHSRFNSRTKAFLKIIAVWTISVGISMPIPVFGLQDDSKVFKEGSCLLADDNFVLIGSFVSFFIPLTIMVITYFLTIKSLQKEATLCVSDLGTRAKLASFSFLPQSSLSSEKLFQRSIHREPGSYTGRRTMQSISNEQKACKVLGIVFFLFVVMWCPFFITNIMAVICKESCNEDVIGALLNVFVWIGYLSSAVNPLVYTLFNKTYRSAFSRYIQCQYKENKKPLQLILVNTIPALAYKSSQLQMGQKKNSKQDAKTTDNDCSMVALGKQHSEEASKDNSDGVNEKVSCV

| Compound | effect on NanoBiT luminescence (heteromer disruption) |
| --- | --- |
| ETYLMFWIGVTSVLLLFIVYAYMYILWGRKKRRQRRR [TM5-TAT, reference compound] | decrease in the luminescence readout |
| GRKKRRQRRRKTLVLILVVLIICWGPLLAIMVY [TM6-TAT, reference compound] | decrease in the luminescence readout |
| C=CCCC[C@](C)(NC(=O)[C@H](Cc1ccc(O)cc1)NC(=O)[C@@H](N)C(C)C)C(=O)N[C@@H](Cc1ccc(O)cc1)C(=O)N[C@@H](CCCC)C(=O)N[C@@](C)(CCCC=C)C(=O)N[C@H](C(=O)N[C@@H](CC(C)C)C(=O)N[C@@H](Cc1c[nH]c2ccccc12)C(N)=O)[C@@H](C)CC [Peptide 11] (H-VY[S5]Y[Nle][S5]ILW-NH2) | neither the version lacking the TAT amino acid sequence, compound 9, nor the nonstaple, compound 11, peptides induced any change |
| CCCC[C@H](NC(=O)[C@]1(C)CCC/C=C\CCC[C@](C)(NC(=O)[C@H](Cc2ccccc2)NC(=O)[C@H](CC(C)C)NC(=O)[C@H](CC(C)C)NC(=O)[C@H](CC(C)C)NC(=O)[C@@H](N)C(C)C)C(=O)N[C@@H](C(C)C)C(=O)N[C@@H](Cc2ccc(O)cc2)C(=O)N[C@@H](C)C(=O)N1)C(=O)N[C@@H](Cc1ccc(O)cc1)C(=O)N[C@H](C(=O)N[C@@H](CC(C)C)C(=O)N[C@@H](Cc1c[nH]c2ccccc12)C(N)=O)[C@@H](C)CC [Peptide 8] (H-VLLLF[S5]VYA[S5][Nle]YILW-NH2; staple (Z) 6-10) | not as efficient as compound 10 |
